In patent US20240124504A1, “AROMATIC HETEROCYCLIC COMPOUND, AND PHARMACEUTICAL COMPOSITION AND APPLICATION THEREOF” (GT APEIRON THERAPEUTICS LIMITED, priority 2020, published 2024) one finds IC50 data, which are given here for 17 compounds.

Each structure is given as a SMILES string.

One assay deals with ovarian cancer A2780. The assay can be described thus: Cell biological activity detection (CyQuant, 72 hours), A2780. The assay is classed as cell-based, human. As to conditions: A2780 cells, incubation for 72 hours. A digest of the protocol: (§1)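 IC50 derived from CyQuant Direct nuclear staining (488 nm excitation) after 72 h compound exposure at 37 °C, 5% CO2. Compounds tested in 9 concentrations from 10 μM, 1:4 steps, 0.2% DMSO, on A2780 or HCC70 cells plated overnight at 2000/well in RPMI 1640 + 10% FBS.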

The next assay has as its target CDK9/cyclinT1 complex (Homo sapiens, UniProt P50750). Nature of the assay: In-vitro enzymatic inhibitory activity testing, CDK9 inhibition assay (Caliper EZ Reader II). The assay is classed as biochemical. As to conditions: CDK9/cyclinT1 8 nM, 180 min at 27° C. A digest of the protocol:
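Phosphorylated and unphosphorylated fluorescent peptide were resolved by mobility-shift electrophoresis, with IC50 taken from a nonlinear regression of dose-response data. Reactions ran 180 min at 27 °C in MES buffer pH 6.5 with MgCl2, after 10 min enzyme–compound preincubation, using 8 nM CDK9/cyclinT1 and 5-FAM-CDK9tide.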

Assay [1] concerns the target T1, CDK12 (aa686-1082)/cyclinK complex (Homo sapiens, UniProt Q9NYV4).
T1 construct: A CDK12 (aa686-1082)/cyclinK complex (50 nM)
The assay can be described thus: In-vitro enzymatic inhibitory activity testing, CDK12 inhibition assay (Caliper EZ Reader II). Particulars: CDK12/cyclinK 50 nM, 180 min at 27° C.; read-out: CDK12 IC50. The assay is classed as biochemical. The essentials:
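CDK12 (aa686-1082)/cyclinK complex at 50 nM was pre-incubated with compound for 10 min, then reacted 180 min at 27° C with ATP and 2 μM 5-FAM-CDK9tide in pH 6.5 MES buffer with 10 mM MgCl2. Reactions were EDTA-quenched and product resolved electrophoretically; IC50 from nonlinear curve fit.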

The target in another assay is CDK2/cyclinE1 complex (Homo sapiens, UniProt P24941). Nature of the assay: In-vitro enzymatic inhibitory activity testing, CDK2 inhibition assay (Caliper EZ Reader II). As to conditions: CDK2/cyclinE1 0.5 nM, 180 min at 27° C. Type of assay: biochemical. A digest of the protocol:
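CDK2/cyclinE1 (0.5 nM) phosphorylated 5-FAM-CDK7tide (2 μM) in MES buffer pH 6.5 with MgCl2, Tween 20 and BSA. Substrate and product were separated electrophoretically on a Caliper EZ Reader II. IC50 values came from nonlinear dose-response fits.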

The target of assay [2] is CDK7/cyclinH/MAT1 complex (Homo sapiens, UniProt P50613). Nature of the assay: In-vitro enzymatic inhibitory activity testing, CDK7 inhibition assay (Caliper EZ Reader II). Type of assay: biochemical. Particulars: CDK7/cyclinH/MAT1 6 nM, 180 min at 27° C. The essentials:
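Enzyme preincubated 10 min with compound, then peptide substrate plus ATP added in 80 mM MES pH 6.5, 10 mM MgCl2 buffer; 180 min at 27 °C, stopped with EDTA.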

Assay [3] has as its system human breast cancer cells HCC70. The assay can be described thus: Cell biological activity detection (CyQuant, 72 hours), HCC70. Type of assay: cell-based. As to conditions: incubation for 72 hours. A digest of the protocol: as §1

CDK9/cyclinT1 complex, sequence (P50750 whole entry, species assumed): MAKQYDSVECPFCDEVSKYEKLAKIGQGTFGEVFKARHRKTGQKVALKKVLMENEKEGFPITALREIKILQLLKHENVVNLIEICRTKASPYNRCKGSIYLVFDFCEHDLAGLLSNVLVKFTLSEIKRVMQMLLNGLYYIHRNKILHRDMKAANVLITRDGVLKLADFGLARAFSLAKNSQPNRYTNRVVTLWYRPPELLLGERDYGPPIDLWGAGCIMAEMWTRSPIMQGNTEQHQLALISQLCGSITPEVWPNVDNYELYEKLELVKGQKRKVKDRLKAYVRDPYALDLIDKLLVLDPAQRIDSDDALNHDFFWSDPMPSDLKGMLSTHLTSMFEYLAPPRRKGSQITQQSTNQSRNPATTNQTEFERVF
CDK9/cyclinT1 complex, sequence (O60563 whole entry partner, species assumed): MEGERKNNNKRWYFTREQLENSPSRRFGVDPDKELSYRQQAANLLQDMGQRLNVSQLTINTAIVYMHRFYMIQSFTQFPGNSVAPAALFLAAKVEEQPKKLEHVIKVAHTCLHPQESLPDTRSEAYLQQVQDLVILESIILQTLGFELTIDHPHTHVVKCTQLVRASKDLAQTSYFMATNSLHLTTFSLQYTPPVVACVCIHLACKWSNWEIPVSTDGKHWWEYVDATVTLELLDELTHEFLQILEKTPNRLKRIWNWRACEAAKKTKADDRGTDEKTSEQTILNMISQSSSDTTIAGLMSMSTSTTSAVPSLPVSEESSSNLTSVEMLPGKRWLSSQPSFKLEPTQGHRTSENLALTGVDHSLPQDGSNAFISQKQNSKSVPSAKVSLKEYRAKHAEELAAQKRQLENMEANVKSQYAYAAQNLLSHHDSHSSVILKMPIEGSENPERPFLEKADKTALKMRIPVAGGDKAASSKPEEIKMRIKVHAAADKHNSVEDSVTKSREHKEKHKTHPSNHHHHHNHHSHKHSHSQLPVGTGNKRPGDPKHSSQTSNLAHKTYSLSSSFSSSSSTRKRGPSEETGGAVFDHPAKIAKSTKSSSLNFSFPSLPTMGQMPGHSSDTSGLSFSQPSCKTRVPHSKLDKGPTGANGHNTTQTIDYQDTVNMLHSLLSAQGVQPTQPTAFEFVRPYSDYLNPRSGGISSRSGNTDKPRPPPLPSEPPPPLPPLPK
CDK7/cyclinH/MAT1 complex, sequence (P50613 whole entry, species assumed): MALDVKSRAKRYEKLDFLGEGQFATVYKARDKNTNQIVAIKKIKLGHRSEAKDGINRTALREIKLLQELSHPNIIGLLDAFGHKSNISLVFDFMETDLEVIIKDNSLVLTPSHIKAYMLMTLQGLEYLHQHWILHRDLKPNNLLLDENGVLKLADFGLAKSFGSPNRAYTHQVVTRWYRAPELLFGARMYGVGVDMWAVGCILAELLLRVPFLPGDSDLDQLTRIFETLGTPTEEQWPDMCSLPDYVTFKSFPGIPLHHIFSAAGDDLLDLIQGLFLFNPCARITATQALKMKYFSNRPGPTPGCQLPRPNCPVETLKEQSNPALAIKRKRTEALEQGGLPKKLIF
CDK7/cyclinH/MAT1 complex, sequence (P51946 whole entry partner, species assumed): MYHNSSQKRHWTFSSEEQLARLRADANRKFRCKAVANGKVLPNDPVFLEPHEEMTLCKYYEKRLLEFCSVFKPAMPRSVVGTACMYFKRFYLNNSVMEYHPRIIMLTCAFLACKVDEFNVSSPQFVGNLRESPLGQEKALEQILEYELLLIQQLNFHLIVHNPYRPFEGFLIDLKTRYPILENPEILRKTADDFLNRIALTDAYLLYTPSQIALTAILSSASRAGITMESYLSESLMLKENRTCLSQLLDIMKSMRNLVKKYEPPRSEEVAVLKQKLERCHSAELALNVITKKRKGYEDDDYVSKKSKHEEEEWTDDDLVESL
CDK7/cyclinH/MAT1 complex, sequence (P51948 whole entry partner, species assumed): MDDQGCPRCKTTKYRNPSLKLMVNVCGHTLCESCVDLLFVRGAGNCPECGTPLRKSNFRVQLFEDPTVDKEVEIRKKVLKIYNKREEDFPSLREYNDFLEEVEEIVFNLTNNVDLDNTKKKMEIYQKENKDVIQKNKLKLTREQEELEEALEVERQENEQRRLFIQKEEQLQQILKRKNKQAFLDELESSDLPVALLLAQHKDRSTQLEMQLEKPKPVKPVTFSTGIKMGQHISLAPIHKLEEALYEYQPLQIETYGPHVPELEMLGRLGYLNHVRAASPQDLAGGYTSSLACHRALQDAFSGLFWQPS
T1 sequence (Q9NYV4 686-1082, species assumed): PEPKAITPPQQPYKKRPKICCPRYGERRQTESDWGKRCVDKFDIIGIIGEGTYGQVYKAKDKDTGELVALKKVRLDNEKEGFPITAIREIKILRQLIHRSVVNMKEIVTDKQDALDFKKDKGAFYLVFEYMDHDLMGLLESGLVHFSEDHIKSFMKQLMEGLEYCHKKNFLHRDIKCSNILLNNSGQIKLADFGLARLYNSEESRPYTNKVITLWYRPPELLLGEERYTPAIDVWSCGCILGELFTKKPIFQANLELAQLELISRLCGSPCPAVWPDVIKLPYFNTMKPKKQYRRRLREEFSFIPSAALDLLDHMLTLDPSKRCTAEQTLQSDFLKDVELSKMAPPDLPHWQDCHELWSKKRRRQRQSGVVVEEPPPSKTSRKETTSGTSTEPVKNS
T1 sequence (O75909 whole entry partner, species assumed, the tested form may be a part): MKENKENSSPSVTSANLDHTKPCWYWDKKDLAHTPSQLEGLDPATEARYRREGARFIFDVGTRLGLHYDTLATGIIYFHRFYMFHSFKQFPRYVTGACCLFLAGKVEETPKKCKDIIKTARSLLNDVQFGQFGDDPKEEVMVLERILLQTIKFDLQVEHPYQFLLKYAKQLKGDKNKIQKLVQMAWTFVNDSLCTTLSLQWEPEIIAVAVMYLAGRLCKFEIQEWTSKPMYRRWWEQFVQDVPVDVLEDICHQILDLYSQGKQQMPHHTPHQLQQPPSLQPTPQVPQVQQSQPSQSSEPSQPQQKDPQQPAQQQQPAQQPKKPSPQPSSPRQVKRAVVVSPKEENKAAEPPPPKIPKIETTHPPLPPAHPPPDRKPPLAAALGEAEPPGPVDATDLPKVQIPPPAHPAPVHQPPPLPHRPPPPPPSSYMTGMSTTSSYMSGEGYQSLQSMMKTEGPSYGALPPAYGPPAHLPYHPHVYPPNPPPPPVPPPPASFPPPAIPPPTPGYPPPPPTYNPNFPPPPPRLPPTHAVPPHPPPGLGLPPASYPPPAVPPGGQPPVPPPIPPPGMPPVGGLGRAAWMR

Take `FC(F)(F)c1cnc(NC2CCCNCC2)nc1-c1c[nH]c2nc(N3CCOCC3)ccc12` (single isomer, unassigned) [Compound 49]: the concentration for half-maximal inhibition (IC50) in the assay with ovarian cancer A2780 is 0.2 to 5 µM; on CDK9/cyclinT1 complex it was greater than 50 µM; in assay [1], 5 to 50 µM; against CDK2/cyclinE1 complex, 5 to 50 µM; in assay [2], 0.2 to 5 µM; in assay [3], 0.2 to 5 µM.
As to `CN(C)[C@H]1CC[C@H](Nc2ncc(C(F)(F)F)c(-c3c[nH]c4nc(C#N)ccc34)n2)C1` [Compound 66], the IC50 in the assay with ovarian cancer A2780 (Homo sapiens, A2780, 72 h) was 0.02 to 0.2 µM; at CDK9/cyclinT1 complex it was 5 to 50 µM; in assay [1], 0.2 to 5 µM; on CDK2/cyclinE1 complex, 0.2 to 5 µM; in assay [2] it was 0.02 to 0.2 µM; in assay [3] (Homo sapiens, HCC70, 72 h), less than 0.02 µM.
Take `CC1(C)COC[C@@H](Nc2ncc(C(F)(F)F)c(-c3c[nH]c4nc(C#N)ccc34)n2)CN1` (single isomer, unassigned) [Compound 64]: the IC50 in the assay on ovarian cancer A2780 (Homo sapiens, A2780, 72 h) is 0.2 to 5 µM; against CDK9/cyclinT1 complex, greater than 50 µM; in assay [1], 5 to 50 µM; against CDK2/cyclinE1 complex it was greater than 50 µM; in assay [2], 0.02 to 0.2 µM; in assay [3] (Homo sapiens, HCC70, 72 h), 0.2 to 5 µM.
`CP(C)(=O)c1cccc2c(-c3nc(NCC4(O)CCCC4)ncc3C(F)(F)F)c[nH]c12` [Compound 151]: the IC50 was 0.02 to 0.2 µM in the assay with ovarian cancer A2780 (Homo sapiens, A2780, 72 h); greater than 50 µM against CDK9/cyclinT1 complex; greater than 50 µM in assay [1]; 5 to 50 µM against CDK2/cyclinE1 complex; 0.02 to 0.2 µM in assay [2]; 0.02 to 0.2 µM in assay [3] (Homo sapiens, HCC70, 72 h).
On to `CP(C)(=O)c1cccc2c(-c3nc(N[C@@H]4CCC45CNC5)ncc3C(F)(F)F)c[nH]c12` [Compound 80], for which the IC50 was less than 0.02 µM in the assay with ovarian cancer A2780 (Homo sapiens, A2780, 72 h); 5 to 50 µM against CDK9/cyclinT1 complex; 5 to 50 µM in assay [1]; 0.2 to 5 µM against CDK2/cyclinE1 complex; less than 0.02 µM in assay [2]; less than 0.02 µM in assay [3] (Homo sapiens, HCC70, 72 h).
`CC(C)[C@@H](CO)Nc1ncc(C(F)(F)F)c(-c2c[nH]c3c(P(C)(C)=O)cccc23)n1` [Compound 115, (S)-(3-(2-((1-hydroxy-3-methylbutan-2-yl)amino)-5-(trifluoromethyl)pyrimidin-4-yl)-1H-indole-7-yl)dimethylphosphine oxide]: the IC50 in the assay with ovarian cancer A2780 (Homo sapiens, A2780, 72 h) is 0.02 to 0.2 µM; at CDK9/cyclinT1 complex, greater than 50 µM; in assay [1] it was greater than 50 µM; on CDK2/cyclinE1 complex it was 5 to 50 µM; in assay [2] it was 0.02 to 0.2 µM; in assay [3] (Homo sapiens, HCC70, 72 h), 0.02 to 0.2 µM.
With `CP(C)(=O)c1cccc2c(-c3nc(NCC(O)C(F)(F)F)ncc3C(F)(F)F)c[nH]c12` (stereo not drawn) [Compound 145, Dimethyl(3-(2-((3,3,3-trifluoro-2-hydroxypropyl)amino)-5-(trifluoromethyl)pyrimidin-4-yl)-1H-indole-7-yl)phosphine oxide], the half-inhibitory concentration (IC50) is 0.02 to 0.2 µM in the assay on ovarian cancer A2780 (Homo sapiens, A2780, 72 h); greater than 50 µM against CDK9/cyclinT1 complex; greater than 50 µM in assay [1]; greater than 50 µM against CDK2/cyclinE1 complex; 0.02 to 0.2 µM in assay [2]; 0.02 to 0.2 µM in assay [3] (Homo sapiens, HCC70, 72 h).
Consider `C[C@@H](O)CNc1ncc(C(F)(F)F)c(-c2c[nH]c3c(P(C)(C)=O)cccc23)n1` [Compound 172, (R)-(3-(2-((2-hydroxypropyl)amino)-5-(trifluoromethyl)pyrimidin-4-yl)-1H-indole-7-yl)dimethylphosphine oxide], for which the IC50 was 0.02 to 0.2 µM in the assay on ovarian cancer A2780 (Homo sapiens, A2780, 72 h); greater than 50 µM against CDK9/cyclinT1 complex; greater than 50 µM in assay [1]; 0.2 to 5 µM at CDK2/cyclinE1 complex; 0.02 to 0.2 µM in assay [2]; 0.02 to 0.2 µM in assay [3] (Homo sapiens, HCC70, 72 h).
Regarding `FC(F)(F)c1cnc(NC2CCC3CNCC32)nc1-c1c[nH]c2nc(N3CCOCC3)ccc12` (single isomer, unassigned) [Compound 57], the IC50 was 0.2 to 5 µM with ovarian cancer A2780; greater than 50 µM at CDK9/cyclinT1 complex; greater than 50 µM in assay [1]; greater than 50 µM at CDK2/cyclinE1 complex; 0.2 to 5 µM in assay [2]; 0.2 to 5 µM in assay [3].
`FC(F)(F)c1cnc(NC2CCCNCC2)nc1-c1c[nH]c2nc(N3CCOCC3)ccc12` (stereo not drawn) [Compound 47, N-(4-(6-morpholinyl-1H-pyrrolo[2,3-b]pyridin-3-yl)-5-(trifluoromethyl)pyrimidin-2-yl)azepan-4-amine]: the IC50 lay within 0.2 to 5 µM in the assay with ovarian cancer A2780 (Homo sapiens, A2780, 72 h); 5 to 50 µM against CDK9/cyclinT1 complex; 5 to 50 µM in assay [1]; 5 to 50 µM against CDK2/cyclinE1 complex; 0.02 to 0.2 µM in assay [2]; 0.2 to 5 µM in assay [3] (Homo sapiens, HCC70, 72 h).
As for `CP(C)(=O)c1cccc2c(-c3nc(NCC(O)C(F)(F)F)ncc3C(F)(F)F)c[nH]c12` (single isomer, unassigned) [Compound 147], the IC50 with ovarian cancer A2780 was 0.02 to 0.2 µM; against CDK9/cyclinT1 complex, greater than 50 µM; in assay [1], greater than 50 µM; at CDK2/cyclinE1 complex it was greater than 50 µM; in assay [2], 0.02 to 0.2 µM; in assay [3] it was 0.2 to 5 µM.
In the case of `C[C@H]1COCCN1c1ccc2c(-c3nc(N[C@H]4CC[C@@H](N)C4)ncc3C(F)(F)F)c[nH]c2n1` [Compound 68, (1S,3R)—N1-(4-(6-((S)-3-methylmorpholinyl)-1H-pyrrolo[2,3-b]pyridin-3-yl)-5-(trifluoromethyl)pyrimidin-2-yl)cyclopentan-1,3-diamine], the IC50 lay within 0.2 to 5 µM in the assay on ovarian cancer A2780 (Homo sapiens, A2780, 72 h); 5 to 50 µM against CDK9/cyclinT1 complex; 5 to 50 µM in assay [1]; 5 to 50 µM against CDK2/cyclinE1 complex; 0.02 to 0.2 µM in assay [2]; 0.2 to 5 µM in assay [3] (Homo sapiens, HCC70, 72 h).
Regarding `Cc1cnc(N[C@@H](C)CO)nc1-c1c[nH]c2c(P(C)(C)=O)cccc12` [Compound 178], the IC50 in the assay on ovarian cancer A2780 (Homo sapiens, A2780, 72 h) was 0.02 to 0.2 µM; on CDK9/cyclinT1 complex, greater than 50 µM; in assay [1], greater than 50 µM; against CDK2/cyclinE1 complex, 5 to 50 µM; in assay [2], 0.02 to 0.2 µM; in assay [3] (Homo sapiens, HCC70, 72 h), 0.2 to 5 µM.
For the compound `FC(F)(F)c1cnc(N[C@@H]2CCC23CNC3)nc1-c1c[nH]c2nc(N3CCOCC3)ccc12` [Compound 59, (R)—N-(4-(6-morpholinyl-1H-pyrrolo[2,3-b]pyridin-3-yl)-5-(trifluoromethyl)pyrimidin-2-yl)-2-azaspiro[3.3]heptan-5-amine], the IC50 was 0.02 to 0.2 µM in the assay on ovarian cancer A2780 (Homo sapiens, A2780, 72 h); 5 to 50 µM at CDK9/cyclinT1 complex; greater than 50 µM in assay [1]; 5 to 50 µM on CDK2/cyclinE1 complex; less than 0.02 µM in assay [2]; 0.02 to 0.2 µM in assay [3] (Homo sapiens, HCC70, 72 h).
In the case of `CP(C)(=O)c1cccc2c(-c3nc(NC(CO)CO)ncc3C(F)(F)F)c[nH]c12` [Compound 194, (3-(2-((1,3-dihydroxypropan-2-yl)amino)-5-(trifluoromethyl)pyrimidin-4-yl)-1H-indole-7-yl)dimethylphosphine oxide], the 50% inhibitory concentration (IC50) is less than 0.02 µM with ovarian cancer A2780 (Homo sapiens, A2780, 72 h); greater than 50 µM on CDK9/cyclinT1 complex; greater than 50 µM in assay [1]; 5 to 50 µM at CDK2/cyclinE1 complex; less than 0.02 µM in assay [2]; 0.02 to 0.2 µM in assay [3] (Homo sapiens, HCC70, 72 h).
For `C[C@@H]1C[C@H](Nc2ncc(C(F)(F)F)c(-c3c[nH]c4nc(N5CCOCC5)ccc34)n2)CCN1` [Compound 54, N-((2R,4R)-2-methylpiperidin-4-yl)-4-(6-morpholinyl-1H-pyrrolo[2,3-b]pyridin-3-yl)-5-(trifluoromethyl)pyrimidin-2-amine], the IC50 is 0.2 to 5 µM with ovarian cancer A2780 (Homo sapiens, A2780, 72 h); greater than 50 µM against CDK9/cyclinT1 complex; 5 to 50 µM in assay [1]; 5 to 50 µM at CDK2/cyclinE1 complex; 0.02 to 0.2 µM in assay [2]; 0.2 to 5 µM in assay [3] (Homo sapiens, HCC70, 72 h).
Consider `CP(C)(=O)c1cccc2c(-c3nc(NCC(O)C(F)F)ncc3C(F)(F)F)c[nH]c12` (single isomer, unassigned) [Compound 125], for which the IC50 was 0.2 to 5 µM with ovarian cancer A2780; greater than 50 µM on CDK9/cyclinT1 complex; greater than 50 µM in assay [1]; 5 to 50 µM against CDK2/cyclinE1 complex; 0.02 to 0.2 µM in assay [2]; 0.02 to 0.2 µM in assay [3].
